In one series the target is T1, Hexokinase HKDC1 (Homo sapiens, UniProt Q2TB90).
T1 sequence (Q2TB90 whole entry): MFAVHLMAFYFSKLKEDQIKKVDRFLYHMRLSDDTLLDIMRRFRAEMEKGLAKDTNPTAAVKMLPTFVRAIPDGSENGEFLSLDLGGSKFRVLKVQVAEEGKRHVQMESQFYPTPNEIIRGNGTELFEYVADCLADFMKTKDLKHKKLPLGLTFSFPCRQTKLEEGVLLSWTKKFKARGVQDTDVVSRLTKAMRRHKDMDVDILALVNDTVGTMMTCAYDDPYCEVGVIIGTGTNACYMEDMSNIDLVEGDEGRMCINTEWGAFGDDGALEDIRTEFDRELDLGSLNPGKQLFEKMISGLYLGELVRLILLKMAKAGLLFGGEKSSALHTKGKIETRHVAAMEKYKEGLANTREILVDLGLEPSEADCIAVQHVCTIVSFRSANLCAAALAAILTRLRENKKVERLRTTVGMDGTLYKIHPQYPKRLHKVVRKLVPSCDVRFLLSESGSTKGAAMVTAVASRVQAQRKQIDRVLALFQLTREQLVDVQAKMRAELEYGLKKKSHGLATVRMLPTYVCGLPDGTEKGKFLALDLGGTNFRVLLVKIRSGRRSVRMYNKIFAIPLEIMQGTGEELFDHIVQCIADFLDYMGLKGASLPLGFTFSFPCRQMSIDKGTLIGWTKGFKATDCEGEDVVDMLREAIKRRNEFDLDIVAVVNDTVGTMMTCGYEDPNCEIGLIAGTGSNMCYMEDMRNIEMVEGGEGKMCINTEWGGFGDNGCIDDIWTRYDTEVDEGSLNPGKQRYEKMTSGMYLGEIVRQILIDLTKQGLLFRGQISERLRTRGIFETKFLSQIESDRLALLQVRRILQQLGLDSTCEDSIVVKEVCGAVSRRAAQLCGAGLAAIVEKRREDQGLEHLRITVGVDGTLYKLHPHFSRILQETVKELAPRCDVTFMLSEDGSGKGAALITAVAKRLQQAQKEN
In words: HKDC1 hexokinase inhibitors, SAR follow-up, biochemical, set 2 (AID 588355). In kind it is functional.

The target of another series is Hexokinase-1 (Homo sapiens, UniProt P19367). In words: HK1 enzyme inhibition by HKDC1 hits, SAR follow-up, selectivity assay for HKDC1 inhibitor project, biochemical, set 2, resazurin fluorescence coupled readout (AID 588356). Type of series: functional.
The test system of another series is Escherichia coli. The series is described as follows: microbe, parasite or virus in culture.
A further series addresses Cytochrome P450 2D6 (Homo sapiens, UniProt P10635).
The target of a further series is T2, Cytochrome P450 1A2 (Homo sapiens, UniProt P05177).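 Also: PubChem cytochrome P450 panel assay, CYP1A2 panel member.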
T2 sequence (P05177 whole entry): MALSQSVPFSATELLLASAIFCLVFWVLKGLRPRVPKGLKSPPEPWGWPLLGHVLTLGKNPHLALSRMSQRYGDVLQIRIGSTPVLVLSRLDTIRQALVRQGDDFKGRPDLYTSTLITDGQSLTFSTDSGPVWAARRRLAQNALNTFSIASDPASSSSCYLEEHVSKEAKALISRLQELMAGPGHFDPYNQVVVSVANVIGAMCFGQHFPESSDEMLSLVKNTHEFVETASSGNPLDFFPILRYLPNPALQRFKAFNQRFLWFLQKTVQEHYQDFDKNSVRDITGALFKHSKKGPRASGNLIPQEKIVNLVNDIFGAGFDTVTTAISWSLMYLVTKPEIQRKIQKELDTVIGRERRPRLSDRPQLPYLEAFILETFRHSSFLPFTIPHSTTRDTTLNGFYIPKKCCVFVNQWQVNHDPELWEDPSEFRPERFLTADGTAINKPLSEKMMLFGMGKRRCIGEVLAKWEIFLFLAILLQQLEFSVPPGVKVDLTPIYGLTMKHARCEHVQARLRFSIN

Series [1] can be described thus: THP-1 cell cytotoxicity, dose response, cytotoxicity control for non-replicating M. tuberculosis project (AID 489025). In kind it is functional.
For series [2], the target named is Dual specificity tyrosine-phosphorylation-regulated kinase 1A (Rattus norvegicus, UniProt Q63470). Type of series: biochemical, Homo sapiens.
Another series relates to H9c2. In words: cells. In kind it is functional, cell-based. Conditions: Rattus norvegicus, H9c2, Myocardium.
For series [3], the target named is T3, High affinity choline transporter 1 (Homo sapiens, UniProt Q9GZV3).
T3 sequence (Q9GZV3 whole entry): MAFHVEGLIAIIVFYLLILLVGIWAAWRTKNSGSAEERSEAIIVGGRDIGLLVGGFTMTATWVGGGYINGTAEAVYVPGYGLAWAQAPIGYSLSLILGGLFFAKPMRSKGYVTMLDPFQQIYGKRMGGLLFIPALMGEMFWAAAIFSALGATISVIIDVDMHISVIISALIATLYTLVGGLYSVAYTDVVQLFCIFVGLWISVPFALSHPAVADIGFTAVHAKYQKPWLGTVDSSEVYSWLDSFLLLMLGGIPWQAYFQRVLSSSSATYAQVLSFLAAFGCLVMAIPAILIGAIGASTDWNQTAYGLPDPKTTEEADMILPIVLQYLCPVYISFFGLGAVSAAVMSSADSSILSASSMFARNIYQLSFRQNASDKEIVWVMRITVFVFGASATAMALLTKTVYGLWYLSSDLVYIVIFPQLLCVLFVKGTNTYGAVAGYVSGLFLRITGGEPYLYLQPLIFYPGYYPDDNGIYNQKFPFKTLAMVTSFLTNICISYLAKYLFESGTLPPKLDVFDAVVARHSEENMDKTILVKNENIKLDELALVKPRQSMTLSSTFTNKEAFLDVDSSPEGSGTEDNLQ
The series is described as follows: CHT inhibitors, dose response, cell-based, 5-point CRC, membrane potential dye (AID 504840). Type of series: functional.

Series [4] addresses T4, Ubiquitin-conjugating enzyme E2 N (Homo sapiens, UniProt P61088).
T4 sequence (P61088 whole entry): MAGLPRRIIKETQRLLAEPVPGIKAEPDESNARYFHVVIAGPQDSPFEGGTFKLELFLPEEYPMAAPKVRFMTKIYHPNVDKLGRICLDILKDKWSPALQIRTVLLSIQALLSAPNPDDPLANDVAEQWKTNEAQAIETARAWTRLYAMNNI
Type of series: functional.

For series [5], the target named is T4, Ubiquitin-conjugating enzyme E2 N. Type of series: functional. The source holds these as a separate data set.
The target of series [6] is T5, Histone-lysine N-methyltransferase NSD2 (Homo sapiens, UniProt O96028).
T5 sequence (O96028 whole entry): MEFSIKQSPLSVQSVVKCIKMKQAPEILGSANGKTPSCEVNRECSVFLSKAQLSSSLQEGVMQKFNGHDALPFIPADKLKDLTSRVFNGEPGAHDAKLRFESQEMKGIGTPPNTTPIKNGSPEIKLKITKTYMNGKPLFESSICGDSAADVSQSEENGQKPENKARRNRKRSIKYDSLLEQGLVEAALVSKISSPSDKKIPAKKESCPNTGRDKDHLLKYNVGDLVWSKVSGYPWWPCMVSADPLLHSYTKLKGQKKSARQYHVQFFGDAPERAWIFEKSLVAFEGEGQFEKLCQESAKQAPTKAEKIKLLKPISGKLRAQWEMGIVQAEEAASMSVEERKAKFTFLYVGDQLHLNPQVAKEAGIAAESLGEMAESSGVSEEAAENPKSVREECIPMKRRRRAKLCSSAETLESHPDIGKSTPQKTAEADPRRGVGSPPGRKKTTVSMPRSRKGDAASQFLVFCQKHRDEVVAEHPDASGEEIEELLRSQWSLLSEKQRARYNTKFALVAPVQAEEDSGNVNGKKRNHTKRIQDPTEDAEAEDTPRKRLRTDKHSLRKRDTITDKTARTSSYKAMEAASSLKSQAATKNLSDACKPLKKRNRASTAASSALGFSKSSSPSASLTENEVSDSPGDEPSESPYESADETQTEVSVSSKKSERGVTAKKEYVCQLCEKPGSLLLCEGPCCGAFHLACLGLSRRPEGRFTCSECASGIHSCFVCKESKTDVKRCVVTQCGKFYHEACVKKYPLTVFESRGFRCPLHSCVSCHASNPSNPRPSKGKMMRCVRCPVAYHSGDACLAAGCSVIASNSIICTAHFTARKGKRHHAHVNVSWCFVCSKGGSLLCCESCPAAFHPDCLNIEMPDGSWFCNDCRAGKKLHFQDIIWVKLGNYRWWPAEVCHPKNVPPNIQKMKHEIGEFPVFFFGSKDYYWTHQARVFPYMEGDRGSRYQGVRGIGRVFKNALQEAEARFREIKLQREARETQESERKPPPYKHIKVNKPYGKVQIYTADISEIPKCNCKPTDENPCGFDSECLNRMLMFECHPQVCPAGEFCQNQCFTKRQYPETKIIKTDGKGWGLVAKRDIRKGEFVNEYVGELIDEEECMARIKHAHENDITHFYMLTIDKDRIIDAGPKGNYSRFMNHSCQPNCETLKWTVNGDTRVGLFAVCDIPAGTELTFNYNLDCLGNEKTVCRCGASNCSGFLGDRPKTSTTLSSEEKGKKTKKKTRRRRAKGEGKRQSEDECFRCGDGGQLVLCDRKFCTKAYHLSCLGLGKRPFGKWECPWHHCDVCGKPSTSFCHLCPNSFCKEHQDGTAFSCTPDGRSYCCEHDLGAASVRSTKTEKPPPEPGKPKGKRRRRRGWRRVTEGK
In kind it is biochemical.

The target of a further series is T6, Bcl-2-related protein A1 (Mus musculus, UniProt Q07440).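 Also: confirmatory dose–response counterscreen on Bfl-1, used to check hits from a UBC13 polyubiquitin inhibitor campaign.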
T6 sequence (Q07440 whole entry): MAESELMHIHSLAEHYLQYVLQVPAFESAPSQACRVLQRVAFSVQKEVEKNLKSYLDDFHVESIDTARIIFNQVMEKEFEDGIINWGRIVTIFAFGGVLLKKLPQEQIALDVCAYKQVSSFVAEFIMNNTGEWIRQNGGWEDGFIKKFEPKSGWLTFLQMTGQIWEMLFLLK
Type of series: functional.

The target of the next series is Cytochrome P450 2C19 (Homo sapiens, UniProt P33261). The series is described as follows: Cytochrome panel assay with activity outcomes. Panel member name: p450-cyp2c19 Compounds with AC50 equal or less than 10 uM are considered active. Type of series: functional.
Series [7] can be described thus: control 3'UTR Renilla luciferase suppression, dose response, counter-screen for Shn3 inhibitor project, cell-based, Clone20-Shn3RL, cherry-picked (AID 624133). Type of series: functional. In general terms: A counterscreen serves to expose hits that act by an unwanted route or on another target.
Series [8] can be described thus: Shn3 3'UTR reporter inhibitors, dose response, cell-based, Clone20 osteoblasts, firefly luciferase, cherry-picked (AID 624132).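 Also: firefly luciferase luminescence from reporter carrying the Shn3 3'UTR in osteoblasts.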 Type of series: functional.
Series [9] has as its system HEK293. The series is described as follows: cells. Conditions: Homo sapiens.
Series [10] in a line: HepG2 cell cytotoxicity, dose response, cytotoxicity control for Shn3 inhibitor project, CellTiter-Glo, cherry-picked (AID 624134). Type of series: functional, cell-based. On the technique in general: Cellular ATP, detected with luciferase, serves as a proxy for viable cell number.
Series [11] is described as follows: C. albicans growth with fluconazole, confirmation, fluorescence, retest (AID 2467). Type of series: functional, cell-based.
Series [12] has as its system HEK293. In words: cells. As to conditions: Homo sapiens. This is another data set of the same source.
A short description of series [13]: NIH-3T3 fibroblast cytotoxicity, dose response, cytotoxicity control, cell-based, fluorescence, Alamar Blue, secondary assay (AID 2327).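 Also: NIH-3T3 mouse fibroblasts cultured with fluconazole at 8 µg/mL.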 In kind it is functional. On the technique in general: Alamar Blue is a resazurin reagent that responds to reducing activity.

The source made the active and inactive calls.

Chain of Cytochrome P450 2D6 (P10635 whole entry): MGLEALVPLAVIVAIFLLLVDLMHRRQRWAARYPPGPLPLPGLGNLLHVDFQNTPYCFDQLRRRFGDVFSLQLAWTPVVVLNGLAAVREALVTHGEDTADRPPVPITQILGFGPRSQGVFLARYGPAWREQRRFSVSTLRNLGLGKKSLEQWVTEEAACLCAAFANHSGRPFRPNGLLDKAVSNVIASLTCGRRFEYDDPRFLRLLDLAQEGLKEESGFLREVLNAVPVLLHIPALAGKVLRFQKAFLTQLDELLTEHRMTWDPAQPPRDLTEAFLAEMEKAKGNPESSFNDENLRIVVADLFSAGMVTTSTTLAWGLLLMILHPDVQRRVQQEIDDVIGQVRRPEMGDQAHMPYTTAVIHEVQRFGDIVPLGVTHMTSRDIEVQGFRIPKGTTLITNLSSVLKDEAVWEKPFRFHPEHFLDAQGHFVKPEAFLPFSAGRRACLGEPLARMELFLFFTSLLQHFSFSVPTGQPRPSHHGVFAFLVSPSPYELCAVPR
Chain of Hexokinase-1 (P19367 whole entry): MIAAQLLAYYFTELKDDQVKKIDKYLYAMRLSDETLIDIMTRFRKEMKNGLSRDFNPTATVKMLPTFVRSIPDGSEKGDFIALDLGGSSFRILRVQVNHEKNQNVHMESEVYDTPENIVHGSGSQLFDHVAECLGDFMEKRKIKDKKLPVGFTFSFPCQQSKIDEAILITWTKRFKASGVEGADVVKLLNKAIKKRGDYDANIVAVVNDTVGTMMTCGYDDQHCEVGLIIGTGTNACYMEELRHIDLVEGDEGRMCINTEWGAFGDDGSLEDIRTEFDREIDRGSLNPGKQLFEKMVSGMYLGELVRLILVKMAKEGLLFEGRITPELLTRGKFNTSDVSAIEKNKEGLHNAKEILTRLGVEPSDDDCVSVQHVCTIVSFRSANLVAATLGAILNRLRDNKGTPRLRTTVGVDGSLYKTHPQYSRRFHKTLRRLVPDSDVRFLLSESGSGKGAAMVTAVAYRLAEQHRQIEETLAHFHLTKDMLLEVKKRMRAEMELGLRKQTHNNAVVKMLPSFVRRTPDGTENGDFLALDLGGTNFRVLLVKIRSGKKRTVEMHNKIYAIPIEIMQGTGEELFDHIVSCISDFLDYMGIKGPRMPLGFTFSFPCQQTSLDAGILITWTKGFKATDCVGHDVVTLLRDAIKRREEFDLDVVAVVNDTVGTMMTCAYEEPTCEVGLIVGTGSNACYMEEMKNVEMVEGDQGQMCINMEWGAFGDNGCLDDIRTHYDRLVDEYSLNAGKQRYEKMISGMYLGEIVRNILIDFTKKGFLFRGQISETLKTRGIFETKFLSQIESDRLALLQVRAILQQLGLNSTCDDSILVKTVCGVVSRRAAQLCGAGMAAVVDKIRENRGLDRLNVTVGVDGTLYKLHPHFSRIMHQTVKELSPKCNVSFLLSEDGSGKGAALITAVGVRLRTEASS
Chain of Cytochrome P450 2C19 (P33261 whole entry): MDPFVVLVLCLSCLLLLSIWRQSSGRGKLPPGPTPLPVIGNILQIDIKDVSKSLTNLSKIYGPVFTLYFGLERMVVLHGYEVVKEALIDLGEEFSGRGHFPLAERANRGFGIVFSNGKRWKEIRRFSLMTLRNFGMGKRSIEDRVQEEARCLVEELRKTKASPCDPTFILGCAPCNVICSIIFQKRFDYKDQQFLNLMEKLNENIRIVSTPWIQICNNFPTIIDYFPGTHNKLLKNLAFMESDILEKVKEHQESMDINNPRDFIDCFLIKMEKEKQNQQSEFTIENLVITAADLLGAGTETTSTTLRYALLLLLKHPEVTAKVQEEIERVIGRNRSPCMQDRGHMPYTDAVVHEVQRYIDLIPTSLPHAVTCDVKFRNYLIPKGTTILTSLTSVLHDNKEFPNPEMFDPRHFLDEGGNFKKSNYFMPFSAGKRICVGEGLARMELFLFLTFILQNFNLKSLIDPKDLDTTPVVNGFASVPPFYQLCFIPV

With `CCCCN1C(=O)C(NC(C)=O)c2cc(C)ccc21` (configuration not stated), the IC50 on Hexokinase HKDC1 and on Hexokinase-1 was > 80 µM (inactive) in each case.
Take `Cc1ccc2oc3c(c(=O)c2c1)C(c1cccs1)N(CCCN(C)C)C3=O` (configuration not stated): the AC50 in the series on Escherichia coli was 27.1 µM (active).
`CC1=NN(c2ccccc2)C(=O)[C@@H]1/N=N\c1ccc([As](=O)(O)O)c(O)c1`: the concentration at half-maximal activity (AC50) result is “inconclusive” on Cytochrome P450 2D6 and 5.01 µM (inconclusive) on Cytochrome P450 1A2.
`O=c1cc(-c2ccccc2Cl)oc2c([N+](=O)[O-])c(O)cc(O)c12`: the CC50 in series [1] was > 40 µM (active). Besides, the AC50 in series [2] is 1.22 µM (active).
In the case of `O=C(NC1CCCCC1)C(c1ccc2ncccc2c1)N(Cc1ccccc1)C(=O)c1ccc2c(c1)OCCO2` (configuration not stated), the IC50 is > 79 µM (inactive) in the series on H9c2 and 10 µM (active) in [3].
As to `CNCc1cc(Br)c(OCC(=O)Nc2ccccc2OC)c(OC)c1`, the IC50 was 9.34 µM (active) in [4], 8.66 µM (active) in series [5] and > 20 µM (inactive) at Bcl-2-related protein A1. Besides, the AC50 in [6] is 14.7 µM (active).
For the molecule `NS(=O)(=O)c1cc(C(=O)O)c(Cl)c([N+](=O)[O-])c1Cl`, the AC50 result on Cytochrome P450 2C19 is “inconclusive”; at Cytochrome P450 2D6, “inconclusive”; on Cytochrome P450 1A2, 1.26 µM (inconclusive).
For the molecule `O=C(Oc1c(CN2CCOCC2)cc(Cl)c2cccnc12)c1ccccc1Cl`, the values for the AC50 in [7], in series [8] and in [10] were 9.15 µM (active), 4.59 µM (active) and 7.37 µM (active), respectively. Also, the EC50 was > 59.6 µM (inactive) in the series with HEK293 [9], 2.86 µM (active) in series [11], > 59.6 µM (inactive) in the series on HEK293 [12] and > 160 µM (inactive) in [13].
`O=C(c1ccco1)N1CCCC(c2nc(O)c3nnn(Cc4ccc(F)cc4)c3n2)C1` (configuration not stated): in the series with Escherichia coli, the half-maximal activity concentration (AC50) was 42.9 µM (active).
For `COc1ccc(N(C(=O)c2snc(C(N)=O)c2N)C(C(=O)NC2CCCC2)c2ccco2)cc1` (configuration not stated), the IC50 in [4] is 8.44 µM (active); in [5], 8.84 µM (active); on Bcl-2-related protein A1 it was > 20 µM (inactive).

Broadly, the IC50 is the midpoint of a concentration-inhibition curve. What is called AC50 is the midpoint of the concentration-response curve, whichever way the signal moves. The term CC50 denotes the concentration that lowers cell viability or growth by half. As a reminder, the EC50 is the midpoint of the concentration-response curve.

These data come from ChEMBL document CHEMBL1201862, “PubChem BioAssay data set” (2004).
